According to article PMC9229894, “In Silico, In Vitro, and Pharmacokinetic Studies of UBMC-4, a Potential Novel Compound for Treating against Trypanosoma cruzi” (Pathogens, 2022):

How the values were obtained:
T. cruzi trypomastigotes = assay: Flow cytometry of apoptosis-like markers in trypomastigotes; type: cell-based, Trypanosoma cruzi; settings: 10 µM
Procedure: Apoptosis-like markers were analyzed by triple staining using 3,3′-dihexyloxacarbocyanine (DiOC6), propidium iodide (PI), and Hoechst from Thermo Fisher Scientific to determine the change of mitochondrial membrane potential (ΔΨm), cell membrane damage, and impairment of cell cycle, respectively. All readings were performed on a BD FACSCanto II 4/2/2 Sys IVD flow cytometer, and data obtained were analyzed using the FlowJo7.6.2 software. Differences between treatments were determined by a two-way ANOVA for multiple comparisons with 95% significance using GraphPad Prism 8. In all cases, 20 µL of parasites (5 × 10^6/mL) were stained per treatment with 300 µL of Hanks’ balanced saline solution (HBSS) and 10 µL of the staining mix containing […], 0.5 µL of 70 nM DiOC6, and 0.5 µL of 10 mg/mL Hoechst. Subsequently, parasites were incubated at room temperature for 15 min until reading.
The same markers mentioned above were used for T. cruzi trypomastigotes. A total of 1 × 10^6 trypomastigotes were centrifuged at 1800 RCF for 5 min to remove the culture medium. Parasites were cultured at […] in PBS or 10% FBS-supplemented DMEM with or without 10 µM UBMC-4, 10 µM chloroquine, and 10 µM UBMC-4/chloroquine for 2 h and 5 h. All experiments were compared to a culture setup using bz as control compound. Three biological replicates and three experimental replicates were applied to data collected at each time point for experimental conduction of every portion of the study. In all cases, ANOVA was applied for multiple comparisons after determining that data were normal.

[1] = Cytotoxicity, MTT method, CaCo2; type: cell-based; settings: human, Caco-2, read-out: LC50 median lethal concentration CaCo2
Procedure: (§1) Cytotoxicity of UBMC-4 was tested in HepG2, CaCo2, and huMDM cell lines according to the effect on cell growth determined by the MTT microenzimatic method, as described by others. Briefly, 2.0 × 10^4 U-937 and huMDM or 2.5 × 10^4 HepG2 and CaCo2 cells were dispensed in 200 µL into each well of a 96-well tissue culture plate containing the corresponding culture medium. Then, 100 µL/well of each compound at a concentration of […] were added and plates were incubated at 37 °C, 5% CO2. After 72 h of incubation, 20 μL of MTT (Sigma-Aldrich, St Louis, MO, USA) were added to each well and plates were incubated for 3 h at 37 °C, 5% CO2. […] The concentration of formazan was determined at 570 nm in a spectrophotometer (Varioskan Flash Multimode Reader, Thermo Scientific, Waltham, MA, USA). […] Cytotoxicity was determined according to the percentages of viability and cell growth inhibition obtained for each compound, bz, doxorubicin, or medium alone. Non-specific absorbance was corrected by subtracting the OD of the blank (culture medium). Percentages of mortality were calculated using equation, as follows: % mortality = 100 − [(O.D. of treated cells)/(O.D. of non-treated cells)] × 100. The half maximal effective concentration (EC50) was calculated by the linear regression model Probit using Graphpad Prism software.

[2] = tested on: intracellular forms of Tulahuen strain; design: method as in Araujo-Lima et al. 2018 [44]; settings: ref Araujo-Lima et al. 2018 [44]; read-out: EC50 against intracellular forms of Tulahuen strain; cited from earlier work
[3] = Cytotoxicity, MTT method, huMDM; type: cell-based; settings: human, monocyte-derived macrophages (huMDM), read-out: LC50 median lethal concentration huMDM
Procedure: as §1

[4] = tested on: T. cruzi Tulahuen strain amastigotes; assay: Trypanocidal activity in intracellular amastigotes (β-galactosidase, U937 macrophages); type: cell-based, Trypanosoma cruzi
Procedure: To obtain intracellular amastigotes, 2.5 × 10^6 U937 differentiated macrophage cells were infected with T. cruzi epimastigotes (Tulahuen strain producing β-galactosidase, 24 h of growing) in a 5:1 parasite/cell ratio. To calculate EC50, 100 μL of UBMC-4 were added at four serial dilutions ([…]) to each well, and benznidazole (bz) was added at an initial concentration of 20 µg/mL and 6 serial 2-fold dilutions were used to determine its EC50 as a control of the effectiveness of the experiment, in addition to the control of the viability of the parasites (cells without drug treatment), from the blank of the culture medium (medium without cells), in duplicate. The cells were incubated for 72 h at 37 °C with 5% of CO2. All medium was removed and 100 µL of substrate for β-galactosidase diluted in PBS (chlorophenol β-d-galactopyranoside-CPRG network; Sigma-Aldrich, St Louis, MO, USA, at 100 mM and 0.1% Nonidet P-40) was added to each well and incubated at 37 °C for 3 h. The amount of chlorophenol red released was read at 570 nm in a spectrophotometer (Varioskan TM). Infected cells were used as negative control while infected cells treated with benznidazole were used as a positive control (trypanocidal activity) for the assay. RPMI-1640 medium was used as a negative control. Non-specific absorbance was corrected by subtracting the OD of the blank sample. Determinations were done in triplicate in at least two independent experiments.
The trypanocidal activity was determined based on the percentage of decrease of amastigotes determined using equation, as follows: % reduction of infection = 100 − (O.D. of treated infected cells)/(O.D. of non-treated infected cells) × 100. The half maximal effective concentration (EC50) was calculated by the linear regression model Probit using Graphpad Prism software.

[5] = Cytotoxicity, MTT method, HepG2; type: cell-based; settings: human, HepG2 cells, read-out: LC50 median lethal concentration HepG2
Procedure: as §1

SMILES | mitochondrial membrane potential change (T. cruzi trypomastigotes; normal nutrition conditions) | mitochondrial membrane potential change (T. cruzi trypomastigotes; nutritional stress conditions) | CC50 at 72 h [1] | EC50 [2] | CC50 at 72 h [3] | selectivity index (SI) between huMDM and T. cruzi amastigotes ([4]; LC50 huMDM / EC50 amastigotes) | EC50 ([4]; Trypanosoma cruzi, TULAHUEN, U-937, 72 h, read-out: EC50 half maximal effective concentration for T. cruzi amastigotes) | CC50 at 72 h [5]
CCN(CC)CCCC(C)Nc1ccnc2cc(Cl)ccc12 (centres unmarked) [chloroquine, reference compound] | no alteration in the mitochondrial membrane potential | hyperpolarization continued just as in the untreated controls | – | – | – | – | – | –
O=C(Cn1ccnc1[N+](=O)[O-])NCc1ccccc1 [Benznidazole, benznidazole, reference compound] | – | – | > 760 µM | 1.8 ± 0.7 µM | > 760 µM | > 655 | 1.16 ± 0.03 µM | > 760 µM
